Our source for the TGI and GI50 values is PubChem BioAssay (NCI).

The structures appear in SMILES notation.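 Grown in 96-well plates, cells were treated for 48 hours with each compound at five concentrations. Insufficient inhibition: endpoint recorded as highest concentration tested. GI50 is the concentration that inhibits growth by half. TGI: total growth inhibition.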 Some results are limits rather than exact numbers.

Experiment in all cases: NCI tumour cell line growth inhibition, 48 h
The test system of assay [1] is CCRF-CEM leukemia.
Assay [2] deals with K-562 leukemia.
For assay [3], the system named is KM12 colon.
For assay [4], the system named is M14 melanoma.
For assay [5], the system named is MOLT-4 leukemia.
Assay [6] deals with SK-MEL-5 melanoma.
For assay [7], the system named is UO-31 renal.

On to `O=C(N/N=C(/COc1ccc(Cl)cc1)N=Cc1ccncc1)c1ccncc1`, for which the TGI in assay [1], in assay [2], in assay [3], in assay [4] and in assay [5] was over 100 µM each time.
With `CC1CCC(n2c3cnccc3c3cnc(Nc4ccc5c(n4)CCN(C(=O)CO)C5)nc32)CC1` (stereo unspecified), the GI50 in assay [1] was 0.448 µM; in assay [3], 0.0812 µM; in assay [4], 0.681 µM; in assay [5] it was 0.211 µM; in assay [6], 0.792 µM; in assay [7], 0.263 µM. Also, the TGI in assay [1], in assay [3], in assay [4], in assay [5], in assay [6] and in assay [7] was over 100 µM in each case.
As for `COc1ccc2c(c1)/C(=C/CCN(C)C)c1ccccc1S2`, the TGI in assay [1] was over 100 µM; in assay [2] it was over 100 µM; in assay [3] it was over 100 µM; in assay [4], over 100 µM; in assay [5], over 100 µM; in assay [6], 31.7 µM. The molecule also came in with a TGI in assay [7] of 88.6 µM.
Regarding `CC(C)(C)OC(=O)N[C@H]1CCN(C2CCCCC2)C1=O`, the TGI in assay [1], in assay [2], in assay [4], in assay [5], in assay [6] and in assay [7] was over 100 µM throughout.
For `c1csc(-c2ccc(-c3cccc4nsnc34)s2)c1`, the TGI is 69.3 µM in assay [1]; over 100 µM in assay [2]; over 100 µM in assay [3]; over 100 µM in assay [4]; 39.2 µM in assay [5]; over 100 µM in assay [6]. The TGI in assay [7] is over 100 µM.
`COC(=O)C1SC(SC)=NC12c1ccccc1Nc1ccccc12` (stereo unspecified): the TGI in assay [1] is over 100 µM; in assay [2], over 100 µM; in assay [3] it was over 100 µM; in assay [4], 40.1 µM; in assay [5] it was 71.1 µM; in assay [6], 31 µM. In assay [7], this molecule came in with a TGI of over 100 µM.
With `NC(N)=N/N=C/c1c(-c2ccc(N)cc2)nc2sccn12`, the TGI was over 100 µM in assay [1]; 66.1 µM in assay [2]; over 100 µM in assay [3]; 57.9 µM in assay [4]; 73.9 µM in assay [5]; over 100 µM in assay [6]. In assay [7], this molecule showed a TGI of 39.2 µM.
Regarding `Cc1ccc(N=NC(=Nc2ccccc2)c2ccc(N(CCC#N)CCC#N)cc2)cc1`, the TGI in assay [1] was over 100 µM; in assay [2], over 100 µM; in assay [3] it was over 100 µM; in assay [4], over 100 µM; in assay [5], over 100 µM; in assay [6], 47 µM. Besides, the TGI in assay [7] is over 100 µM.
For the molecule `CCCCCCc1cc2cc(-c3csc(CC#N)n3)c(=O)oc2cc1O`, the TGI in assay [1], in assay [2], in assay [3], in assay [4], in assay [5] and in assay [6] was over 100 µM in each case. In addition, in assay [7], the TGI was over 78.6 µM.
On to `CCOC(=O)C1(C/C=C/CBr)Cc2ccccc2C1=O` (stereo unspecified), for which the TGI worked out at 5.36 µM in assay [1]; 4.84 µM in assay [2]; 10.8 µM in assay [3]; 11.6 µM in assay [4]; 8.31 µM in assay [5]; 7.66 µM in assay [6]. The same molecule yielded a TGI in assay [7] of 4.83 µM.
For the molecule `Cc1cn2c(/C=N/N=C(N)N)c(-c3cccc([N+](=O)[O-])c3)nc2s1`, the TGI in assay [1] is over 100 µM; in assay [3], 2.38 µM; in assay [4] it was 4.36 µM; in assay [5], 4.04 µM; in assay [6] it was 3.13 µM; in assay [7], 19.6 µM.
As for `COc1cccc(C(=O)O[C@H]2[C@@H]3[C@]4(OC(C)=O)CO[C@@H]4C[C@H](O)[C@@]3(C)C(=O)[C@H](OC(C)=O)C3=C(C)[C@@H](OC(=O)[C@H](O)[C@@H](NC(=O)OC(C)(C)C)c4ccco4)C[C@]2(O)C3(C)C)c1`, the TGI in assay [1] was 0.368 µM; in assay [3], over 15.2 µM; in assay [4], 5.9 µM; in assay [5], 9.99 µM; in assay [6], over 15.7 µM; in assay [7] it was over 35 µM.
For `[N-]=[N+]=NC[C@H]1OCO[C@H](CN=[N+]=[N-])[C@@H](OCCOCCCl)[C@@H]1OCCOCCCl`, the TGI in assay [1], in assay [2], in assay [3], in assay [4], in assay [5] and in assay [6] was over 100 µM in each case. The molecule further displayed a TGI in assay [7] of 57.2 µM.
For the molecule `CC(C)(C)N1CSC(=S)N(Cc2ccco2)C1`, the TGI was 4.03 µM in assay [1]; 13.3 µM in assay [2]; 14.3 µM in assay [3]; 11.8 µM in assay [4]; 5.72 µM in assay [5]; 14 µM in assay [6]. The molecule further came in with a TGI in assay [7] of 6.14 µM.
Regarding `COc1ccc(COCCOCc2nc(C#N)c(N)o2)cc1`, the TGI in assay [1], in assay [2], in assay [3], in assay [4], in assay [5] and in assay [6] was over 100 µM throughout. The TGI in assay [7] was over 100 µM.
On to `CCOC(=O)C(SCCO)C(C(=O)OCC)n1cnc2c(=O)[nH]c(NC(C)=O)nc21` (stereo unspecified), for which the TGI in assay [1], in assay [2], in assay [3], in assay [4], in assay [5] and in assay [6] was over 100 µM throughout. In assay [7], the TGI was over 100 µM.
`O=C1CSC(c2ccc(Cl)cc2)N1c1ccc(Oc2ccc(Cl)cc2)c(Cl)c1` (stereo unspecified): the TGI in assay [1] is 30.6 µM; in assay [2], over 100 µM; in assay [3], 29.4 µM; in assay [4], 33.3 µM; in assay [5], 45 µM; in assay [6] it was 32.4 µM. Further, in assay [7], the TGI is 21 µM.
Consider `COc1cc(C2c3cc4c(cc3OC(N3CCOCC3)C2C)OCO4)ccc1O` (stereo unspecified), for which the TGI is over 91.8 µM in assay [1]; 33 µM in assay [2]; over 100 µM in assay [3]; over 63.5 µM in assay [4]; 60.7 µM in assay [5]; over 80.4 µM in assay [6]. Further, the TGI in assay [7] was over 92.8 µM.
On to `CN1C(=O)C2CCC(=O)N2c2cccnc21` (stereo unspecified), for which the TGI in assay [1], in assay [2], in assay [3], in assay [5], in assay [6] and in assay [7] was over 100 µM each time.
Regarding `CCOC(=O)c1csc(NC(=O)CN2CCOCC2)n1`, the TGI in assay [1] was over 100 µM; in assay [2], over 100 µM; in assay [3] it was over 100 µM; in assay [4] it was over 100 µM; in assay [5], 48.5 µM; in assay [6] it was over 100 µM. The TGI in assay [7] is over 100 µM.
For `CC1(C)N=[N+]([O-])C1(C)C`, the TGI in assay [1], in assay [2], in assay [3], in assay [4], in assay [5] and in assay [6] was over 100 µM each time. Besides, in assay [7], the TGI is over 100 µM.
For `COc1ccc(-c2c(C#N)c(-c3ccc(C)cc3)n(NS(=O)(=O)c3ccc(C)cc3)c(=O)c2C#N)cc1`, the TGI in assay [1] was 81.6 µM; in assay [2] it was over 100 µM; in assay [3], over 100 µM; in assay [4], over 100 µM; in assay [5], 57.4 µM; in assay [6], 58.3 µM.
For the molecule `CC(=O)OC1CC(OC2C(O)CC(OC3C(O)CC(OC4CCC5(C)C(CCC6C5CC(O)C5(C)C(C7=CC(=O)OC7)CCC65O)C4)OC3C)OC2C)OC(C)C1OC1OC(CO)C(O)C(O)C1O` (stereo unspecified), the TGI was over 100 µM in assay [2]; 0.519 µM in assay [3]; 0.343 µM in assay [4]; over 100 µM in assay [5]; 0.161 µM in assay [6]; 0.179 µM in assay [7].
`Nc1nc(SCCc2ccccc2)c2[nH]cnc2n1`: the TGI in assay [1], in assay [2], in assay [3], in assay [4], in assay [5] and in assay [6] was over 100 µM each time. Further, the TGI in assay [7] is over 100 µM.
In the case of `O=[N+]([O-])c1ccc2c(c1)c(OCc1ccccc1)nn2Cc1ccccc1`, the TGI in assay [1], in assay [2], in assay [3], in assay [4], in assay [5] and in assay [6] was over 100 µM in each case. This molecule registered a TGI in assay [7] of over 100 µM.
As for `c1ccc(N=c2sc3ccccc3nc2Nc2ccccc2)cc1`, the TGI in assay [1], in assay [2], in assay [3], in assay [5], in assay [6] and in assay [7] was over 100 µM throughout.
For `Cc1ccc(C(=O)O)cc1S(=O)(=O)Nn1cnc2ccc(S(=O)(=O)Nc3ccccc3C(=O)O)cc2c1=O`, the TGI in assay [1], in assay [2], in assay [3], in assay [4], in assay [5] and in assay [7] was over 100 µM throughout.
Turning to `O=C1c2ccccc2-c2c1c1ccccc1c(=O)n2CCNCCNCCNCCn1c2c(c3ccccc3c1=O)C(=O)c1ccccc1-2`, the GI50 was 0.253 µM in assay [2], 0.669 µM in assay [3], 1.61 µM in assay [4] and 1.12 µM in assay [7]. Besides, the TGI was 3.22 µM in assay [3], 3.5 µM in assay [4] and 2.64 µM in assay [7].
Regarding `NC(=O)NCCCC(NC(=O)OCCCCn1ccc(=O)[nH]c1=O)C(=O)O` (stereo unspecified), the TGI in assay [1], in assay [2], in assay [3], in assay [4], in assay [5] and in assay [7] was over 100 µM in each case.
`CC(C)(C)OC(=O)NCCCCC1NC(=O)[C@@H]2Cc3c([nH]c4ccccc34)C(C3CCCCC3)N2C1=O` (stereo partly specified): the TGI in assay [2] was over 100 µM; in assay [3], over 100 µM; in assay [4], over 100 µM; in assay [5], 44.9 µM; in assay [6], over 100 µM; in assay [7] it was over 100 µM.
Turning to `O=c1c2cc([N+](=O)[O-])cnc2sn1-c1ccc([N+](=O)[O-])cc1`, the TGI in assay [1] was 82.2 µM; in assay [3], 62.4 µM; in assay [4], over 100 µM; in assay [5], 75.6 µM; in assay [6], over 100 µM; in assay [7] it was over 100 µM.
On to `COC(=O)c1cc(=O)nc2sc3cccc(C)c3n12`, for which the TGI in assay [1], in assay [2], in assay [3], in assay [4], in assay [5] and in assay [6] was over 100 µM in each case.
Take `Cc1ccc(-c2n[nH]c(=O)n2N2C(=O)c3ccccc3C2=O)cc1`: the TGI in assay [2], in assay [3], in assay [4], in assay [5], in assay [6] and in assay [7] was over 100 µM in each case.
Consider `O=C1CCCc2cc3c(cc21)CC1(Cc2ccccc2C1)C3`, for which the TGI in assay [2] turned out to be 7.74 µM; in assay [3], 13.7 µM; in assay [4], 25.3 µM; in assay [5] it was 19.3 µM; in assay [6], 16.2 µM.
As for `O=c1[nH]c(Nc2cccc(CC(F)(F)F)c2)nc2nc[nH]c12`, the TGI in assay [1], in assay [3], in assay [4], in assay [6] and in assay [7] was over 100 µM each time.
Consider `Cc1cc(Cc2cc(C)c(N)cc2N)c(N)cc1N`, for which the TGI in assay [2], in assay [3], in assay [4], in assay [5], in assay [6] and in assay [7] was over 100 µM each time.
With `O=C1CCCSC(=O)N1Cc1ccccc1`, the TGI in assay [1], in assay [3], in assay [4], in assay [5] and in assay [6] was over 100 µM each time.
On to `COCO[C@@H]1C[C@H]2C(=O)Nc3ccccc3C(=O)N2C1`, for which the TGI in assay [3] is over 100 µM; in assay [4], over 100 µM; in assay [6], over 100 µM; in assay [7], 74.5 µM.
